Measured values taken from patent publication US7645882B2, “Inhibitor of protein modification products formation” (priority 2003, dated 2010).

The compounds below were run on pentosidine (assay: Pentosidine production inhibiting effect with BSA and arabinose). Conditions: BSA and arabinose instead of plasma.
Assay type: biochemical
Description: Fresh heparinized plasma samples were obtained after informed consent from hemodialysis patients prior to the dialysis session, and filtrated and sterilized. To the plasma (450 μL), there was added the solution of TM-2002 in dimethylsurphoxide (50 μL) (final concentration: 0.8, 2.0, 5.0 mM) incubated at 37° C. for one week. Then, the amount of pentosidine was measured.
Measurement of the amount of pentosidine was made as follows: to each incubated sample (50 μL) was added an equal volume of 10% trichloroacetic acid, followed by centrifugation at 5000 g for 5 minutes; after removal of the supernatant, the pellet was washed by 5% trichloroacetic acid (300 μL); the pellet was dried under reduced pressure and then subjected to hydrolysis in 6N HCl solution (100 μL) at 110° C. under nitrogen atmosphere for 16 hours; to the hydrolysate, 5N NaOH (100 μL) and 0.5 M phosphate buffer (pH 7.4) (200 μL) were added, followed by filtration through a porefilter with a pore size of 0.5 μm and dilution with PBS. The concentration of free pentosidine was determined by reversed-phase HPLC using a fluorescence detector (Miyata, T. et al.: Proc. Natl. Acad. Sci. USA, Vol. 93, p. 2353-2358, 1996). The effluent was monitored at 335/385 nm of excitation/emission wavelength. Synthetic pentosidine was used as the standard. The detection limit of pentosidine was 0.1 pmol/mg protein.
The plasma from patients was substituted to BSA and arabinose, and the pentosidine production inhibiting effect of another compounds (I) or (II) was measured in the same manner as [Test Examination 1]. Therein, “-” means that the examination was not carried out.

| Compound | Pentosidine production rate in 5 mM of medicament (%) |
| --- | --- |
| CC1=NN(c2ccccc2)C(=O)C1CCC(=O)O (centres unmarked) [compound 7, 3-(3-methyl-5-oxo-1-penyl-4,5-dihydro-1H-pyrazol-4-yl)-propionic acid] | 64.64% |
| CC1=NN(c2ccccc2)C(=O)C1C(c1ccccc1)c1c(C)nn(-c2ccccc2)c1O (centres unmarked) [compound 9, 4-[(5-hydroxy-3-methyl-1-phenyl-1H-pyrazol-4-yl)-phenyl-methyl]-5-methyl-2-phenyl-2,4-dihydro-pyrazol-3-one] | 7.52% |
| CC(=O)NC1C(=O)N(c2ccccc2)N=C1C (centres unmarked) [compound 12, N-(3-methyl-5-oxo-1-phenyl-4,5-dihydro-1H-pyrazol-4-yl)-acetamide] | 54.21% |
| CC1=NN(c2cccc([N+](=O)[O-])c2)C(=O)C1Sc1nnnn1-c1ccccc1 (centres unmarked) [compound 13, 5-methyl-2-(3-nitro-phenyl)-4-(1-phenyl-1H-tetrazol-5-yl-sulfanil)-2,4-dihydro-pyrazol-3-one] | 74.66% |
| O=C(NC1=NN(c2ccccc2)C(=O)C1Sc1nnnn1-c1ccccc1)c1ccccc1 (centres unmarked) [compound 14, N-[5-oxo-1-phenyl-4-(1-phenyl-1H-tetrazol-5-yl-sulfanil)-4,5-dihydro-1H-pyrazol-3-yl]-benzamide] | 61.27% |
| CC1=NN(c2ccccc2)C(=O)C1C1C(=O)N(c2ccccc2)N=C1C (centres unmarked) [compound 17, 5,5′-dimethyl-2,2′-diphenyl-2,4,2′,4′-tetrahydro-[4,4′]-bipyrazol-3,3′-dione] | 60.96% |
| COc1ccc(-c2csc(SC3C(=O)N(c4ccccc4)N=C3C)n2)cc1 (centres unmarked) [compound 19, 4-[4-(4-methoxy-phenyl)-thiazole-2-yl-sulfanil]-5-methyl-2-phenyl-2,4-dihydro-pyrazol-3-one] | 40.19% |
| CCCC1=NN(c2ccccc2)C(=O)C1CC(=O)c1ccccc1 (centres unmarked) [compound 20, 4-(2-oxo-2-phenyl-ethyl)-2-phenyl-5-propyl-2,4-dihydro-pyrazol-3-one] | 83.12% |
| CC1=NN(c2ccccc2)C(=O)C1Sc1nc(-c2ccc(C)cc2)cs1 (centres unmarked) [compound 21, 5-methyl-2-phenyl-4-(4-p-toluyl-thiazole-2-yl-sulfanil)-2,4-dihydro-pyrazol-3-one] | 42.07% |
| CC1=NN(c2ccc(F)cc2)C(=O)C1C(c1ccccc1O)c1c(C)nn(-c2ccc(F)cc2)c1O (centres unmarked) [compound 22, 2-(4-fluoro-phenyl)-4-[[1-(4-fluoro-phenyl)-5-hydroxy-3-methyl-1H-pyrazol-4-yl]-(2-hydroxy-phenyl)-methyl]-5-methyl-2,4-dihydro-pyrazol-3-one] | 2.9% |
| CC1=NN(c2ccccc2)C(=O)C1(O)S(=O)(=O)[O-].[Na+] (centres unmarked) [compound 25, sodium; 4-hydroxy-3-methyl-5-oxo-1-phenyl-4,5-dihydro-1H-pyrazol-4-sulfonate] | 38.80% |
| CC1=NN(c2ccccc2)C(=O)C1(N1CCOCC1)N1CCOCC1 [compound 26, 5-methyl-4,4-di-morpholin-4-yl-2-phenyl-2,4-dihydro-pyrazol-3-one] | 50.68% |
| O=C(NC1=NN(c2ccccc2)C(=O)C1(O)S(=O)(=O)[O-])c1ccccc1.[Na+] (centres unmarked) [compound 27, sodium 3-benzoylamino-4-hydroxy-5-oxo-1-phenyl-4,5-dihydro-1H-pyrazol-4-sulfonate] | 2.83% |
| CC1=NN(c2ccccc2)C(=O)C12Sc1ccccc1C2=O (centres unmarked) [compound 28, 3-methyl-1-phenyl-5-oxo-4-spiro-(3-oxo-2,3-dihydro-benzo[b]thiophen-2-yl)-4,5-dihydro-1H-pyrazol] | 22.83% |
| CC1=NN(c2ccccc2)C(=O)C12C(c1ccccc1)C21C(=O)N(c2ccccc2)N=C1C (centres unmarked) [compound 30, 4,10-dimethyl-2,8,11-triphenyl-2,3,8,9-tetraza-dispiro[4.0.4.1]undeca-3,9-diene-1,7-dione] | 62.43% |
| CCOc1cc(/C=C2/C(=O)N(c3ccccc3Cl)N=C2C)ccc1O [compound 31, 2-(2-chloro-phenyl)-4-(3-ethoxy-4-hydroxy-benzylidene)-5-methyl-2,4-dihydro-pyrazol-3-one] | 15.57% |
| CC1=NN(c2ccccc2Cl)C(=O)/C1=C/c1ccc(N(C)C)cc1 [compound 32, 2-(2-chloro-phenyl)-4-(4-dimethylamino-benzylidene)-5-methyl-2,4-dihydro-pyrazol-3-one] | 8.7% |
| CC1=NN(c2cccc(C(F)(F)F)c2)C(=O)/C1=C/C=C/c1ccccc1 [compound 33, 5-methyl-4-(3-phenyl-allylidene)-2-(3-trifluoromethyl-phenyl)-2,4-dihydro-pyrazol-3-one] | 80.08% |
| CC1=NN(c2cccc(F)c2)C(=O)/C1=C\c1ccc(N(C)C)cc1 [compound 35, 4-(4-dimethylamino-benzylidene)-2-(3-fluoro-phenyl)-5-methyl-2,4-dihydro-pyrazol-3-one] | 76.31% |
| CC1=NN(c2cccc(C(=O)O)c2)C(=O)/C1=C\c1ccc(N2CCC(Cl)=N2)cc1 [compound 36, 3-{4-[4-(3-chloro-4,5-dihydro-pyrazol-1-yl)-benzylidene]-3-methyl-5-oxo-4,5-dihydro-pyrazol-1-yl}-benzoic acid] | 26.37% |
| O=C(O)c1cccc(N2N=C(c3ccccc3)/C(=C/c3ccccc3O)C2=O)c1 [compound 37, 3-[4-(2-hydroxy-benzylidene)-5-oxo-3-phenyl-4,5-dihydro-pyrazol-1-yl]-benzoic acid] | 0.02% |
| CC1=NN(c2cccc(Cl)c2)C(=O)/C1=C/c1cc2ccccc2[nH]c1=O [compound 38, 3-[1-(3-chloro-phenyl)-3-methyl-5-oxo-1,5-dihydro-pyrazol-4-ylidene-methyl]-1H-quinolin-2-one] | 84.95% |
| COC(=O)c1cccc(-c2ccc(/C=C3\C(=O)N(c4ccc(S(N)(=O)=O)cc4)N=C3C)o2)c1 [compound 39, 3-{5-[3-methyl-5-oxo-1-(4-sulfamoyl-phenyl)-1,5-dihydro-pyrazol-4-ylidene-methyl]-furan-2-yl}-benzoic acid-methyl ester] | 16.87% |
| COC(=O)c1ccc(N2N=C(C)/C(=C/c3ccc4c(c3)OCO4)C2=O)cc1 [compound 40, 4-(4-benzo[1,3]dioxol-5-ylmethylene-3-methyl-5-oxo-4,5-dihydro-pyrazol-1-yl)-benzoic acid-methyl ester] | 32.37% |
| COC(=O)c1ccc(N2N=C(C)/C(=C/c3ccc(-c4ccc(S(N)(=O)=O)cc4)o3)C2=O)cc1 [compound 41, 4-{3-methyl-5-oxo-4-[5-(4-sulfamoyl-phenyl)-furan-2-yl-methylene]-4,5-dihydro-pyrazol-1-yl}-benzoic acid-methyl ester] | 37.81% |
| CC1=NN(c2ccc(Cl)cc2)C(=O)/C1=C/c1ccc(O)cc1O [compound 42, 2-(4-chloro-phenyl)-4-(2,4-dihydroxy-benzylidene)-5-methyl-2,4-dihydro-pyrazol-3-one] | 68.32% |
